# Source: patent publication US20240252657A1, “HEMTAC SMALL-MOLECULE DEGRADATION AGENT AND APPLICATION THEREOF” (SHANDONG UNIVERSITY, priority 2022, published 2024)
# How the values were obtained:
# [1] = tested on: mouse B16F10 melanoma; test: Anti-tumor experiment in mice in vivo, B16F10 melanoma xenograft model
# Description: B16F10 cells (10^6 cells/mouse) were injected subcutaneously into the forelimb of C57BL/6 mice to establish an xenograft model of mouse B16F10 melanoma. When the tumor volume reached 100-200 mm^3, the mice were randomly divided into four groups (n=6). The compound was injected intraperitoneally every day for two weeks, and the body weights and tumor volumes of the mice were measured every two days. The tumor length and width were measured along two orthogonal axes with a vernier caliper, and the tumor volume in the mouse was calculated based on an equation V (mm^3)=(length×width^2)/2.
# [2] = tested on: CDK4/6; test: Western blot, CDK4/6 protein level in B16F10 cells; type: cell-based, mouse
# Description: (§1) After B16F10 cells were treated with the compound at different concentrations and for different periods of time, the levels of CDK4 and CDK6 proteins in the cells were measured by Western blot. Firstly, intracellular proteins were extracted and quantified. The cells were lysed with RIPA cell lysate (with a protease inhibitor), and proteins were collected, which were quantified by a BCA protein quantitative determination kit and quantified to the same concentration. Protein denaturation: The proteins were placed in a water bath at 100° C. for 8 minutes to denature the proteins. Loading and gel electrophoresis: The loading amount per cell was generally 20 μL. […] Membrane transfer: The membrane transfer was carried out using a wet transfer instrument, at a constant current of 250 mA for 90 minutes. The PVDF membrane should be soaked with methanol beforehand. Blocking: The PVDF membrane was placed in BSA blocking buffer for 1 h (with slow shaking in a shaker). Incubation with primary antibody: The primary antibody was diluted according to the instructions. The primary antibody was added, followed by incubation overnight at 4° C. Membrane washing: The membrane was washed with TBST washing buffer for 3 times, each time for 10 minutes. Incubation with secondary antibody: The second antibody was added, followed by incubation in a shaker at room temperature for 1 h. […]
# [3] = biological target: T1, CDK6 (Mus musculus, UniProt Q64261); test: Western blot, CDK6 degradation in B16F10 cells; type: cell-based; settings: read-out: DC50 (drug concentration leading to 50% protein degradation) of CDK6
# T1 construct: degradation of CDK4 and CDK6 in B16F10 cells; endogenous in cells; host or cells: B16F10
# Description: as §1
# [4] = biological target: T2, CDK4 (Mus musculus, UniProt P30285); test: Western blot, CDK4 degradation in B16F10 cells; type: cell-based; settings: read-out: DC50 (drug concentration leading to 50% protein degradation) of CDK4
# T2 construct: degradation of CDK4 and CDK6 in B16F10 cells; endogenous in cells; host or cells: B16F10
# T2 sequence (P30285 1-303): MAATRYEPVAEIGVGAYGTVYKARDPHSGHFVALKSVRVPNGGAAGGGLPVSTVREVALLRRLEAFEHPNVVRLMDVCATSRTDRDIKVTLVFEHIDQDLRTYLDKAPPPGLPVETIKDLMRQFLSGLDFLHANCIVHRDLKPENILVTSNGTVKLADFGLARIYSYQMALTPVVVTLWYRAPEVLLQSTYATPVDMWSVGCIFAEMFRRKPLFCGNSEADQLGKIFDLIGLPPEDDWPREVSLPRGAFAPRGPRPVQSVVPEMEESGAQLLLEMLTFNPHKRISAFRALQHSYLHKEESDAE
# Description: as §1
# T1 sequence (Q64261 whole entry): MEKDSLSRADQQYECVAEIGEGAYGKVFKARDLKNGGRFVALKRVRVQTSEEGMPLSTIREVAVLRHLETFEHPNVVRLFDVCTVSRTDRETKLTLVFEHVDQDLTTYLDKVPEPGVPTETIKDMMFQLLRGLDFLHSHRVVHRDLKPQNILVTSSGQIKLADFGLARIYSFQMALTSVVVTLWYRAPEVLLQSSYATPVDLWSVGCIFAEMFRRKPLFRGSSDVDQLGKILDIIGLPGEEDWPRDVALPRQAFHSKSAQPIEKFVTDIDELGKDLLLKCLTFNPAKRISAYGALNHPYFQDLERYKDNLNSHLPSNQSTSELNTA
structure (smiles),measurement,setting,value
COc1c(C)cnc(Cn2cc(C#CCCn3cc(CNC(=O)CN4CCN(c5ccc(Nc6ncc7c(C)c(C(C)=O)c(=O)n(C8CCCC8)c7n6)nc5)CC4)nn3)c3c(Cl)nc(N)nc32)c1C [Compound 26],anti-tumor effect compared with BIIB021 (20 mg/kg),"[1]; 20 mg/kg, intraperitoneally every day for two weeks",better than that of HSP90 inhibitor BIIB021
same,growth of melanoma,"[1]; 40 mg/kg, intraperitoneally every day for two weeks",significantly inhibit the growth of melanoma
same,other signs of toxicity,[1]; all treatment groups,no other signs of toxicity
same,body weight of mice,[1]; intraperitoneally every day for two weeks,slight weight loss
same,anti-melanoma effect in vivo,"[1]; mouse B16F10 melanoma model, FIG. 4 legend, no dose given",significant anti-melanoma effect
same,time within which degradation of CDK4/6 was induced,"[2]; B16F10 cells, 0.5 μM",≤ 12 h
same,degradation activity (rank among the HEMTACs),"[2]; B16F10 melanoma cells, 24 h",highest degradation activity
same,DC50,[3],~19 nM
same,DC50,[4],~26 nM
